Molecules are shown by their SMILES. “And” between values parts separate entries of the source, which are not always exact repeats. Equal entries are not always repeated.

The target in experiment [1] is T1, DnaGC (Escherichia coli, UniProt P0ABS5).
T1 construct: made in house
The experiment can be described thus: 1D 19F-NMR binding. The settings on record: compound 1 mM, 50 μM DnaGC (20-fold excess). From the text: The observed NMR peak shifts were consistent with the docked orientation. The negatively charged tetrazole is predicted to form favorable electrostatic and hydrogen bond interactions with the side chains of K447 and R452. The methyl groups of L446, M451, L455, L484 T515 and L519 form a hydrophobic pocket accommodating two aromatic rings of the compound. One of the fluorine atoms is about 3 Å from the amide group of G481 while the second at the para-position of the phenoxy group points out of the pocket toward K518. In the docked conformation, these fluorine atoms are involved in hydrogen bond formation with these two residues (Figure 4). To test the docked orientation of 5, 1D ^19F-NMR was carried out using a 20-fold excess of compound over protein.
(§1) 1D ^19F-NMR spectra were recorded on a Bruker Avance III 400 MHz NMR spectrometer (Bruker, Karlsruhe, Germany) equipped with the two-channel BBO probe with z-gradient at 300 K. All ^19F-NMR spectra were recorded with 256 scans for fragment and complex samples sequentially. Fragments dissolved in ^2H6-DMSO were diluted in HSQC buffer to give final fragment and protein concentrations of 1 mM and 50 μM, respectively.

Experiment [2] deals with T2, DnaGC (C-terminal helicase-binding domain of DnaG primase) (Escherichia coli, UniProt P0ABS5).
T2 construct: made in house
T2 sequence (P0ABS5 434-581): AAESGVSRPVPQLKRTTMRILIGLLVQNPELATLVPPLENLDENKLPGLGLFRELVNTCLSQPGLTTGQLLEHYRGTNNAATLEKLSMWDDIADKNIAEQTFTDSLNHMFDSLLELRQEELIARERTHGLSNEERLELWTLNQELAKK
The experiment can be described thus: 15N–1H HSQC NMR titration (binding affinity). The settings on record: 15N–1H HSQC titration, change in chemical shift with incremental additions of ligand; roughly estimated. On the procedure: The final volume of each sample was 150 μL. The recording time was 30 min for each ^15N–^1H HSQC experiment. A standard pulse sequence was used for data acquisition. Spectra were recorded at 298 K with a Bruker Avance 600 MHz NMR spectrometer equipped with cryoprobe and auto-sample changer. […] The spectra were processed with TOPSPIN 3.1 and analyzed using CCPN [43]. Weighted CSP values were calculated as
Binding affinities were estimated by incremental titration of fragments into protein, with recording of a ^15N–^1H HSQC experiment at each concentration point. Compound solubilities were tested to determine the highest concentrations of ligands used in assays. Equilibrium dissociation constants from NMR titration data were derived using the “single site-specific binding with ligand depletion” model in GraphPad Prism v.6.0 (La Jolla, CA, USA).

The target in experiment [3] is E. coli χ (Escherichia coli, UniProt P28905). The experiment can be described thus: 1D 19F-NMR binding. The settings on record: in the presence of E. coli χ. The method, then: The fragments identified here and the first generation of optimized leads for DnaGC were tested against other SSB-Ct binding partners including E. coli PriA, E. coli RNAse HI, and the χ subunit of E. coli and Acinetobacter baumannii DNA polymerase III. STD-NMR was used to assess binding.
Chain of E. coli χ (P28905 whole entry, the tested form may be a part): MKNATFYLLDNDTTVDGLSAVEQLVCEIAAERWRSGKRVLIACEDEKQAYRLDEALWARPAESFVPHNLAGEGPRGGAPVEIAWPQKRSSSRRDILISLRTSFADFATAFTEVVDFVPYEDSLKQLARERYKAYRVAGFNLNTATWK
as §1

T1 sequence (P0ABS5 434-581): as the sequence (P0ABS5 434-581) above

As for `Fc1ccc(Oc2cccc(F)c2-c2nnn[nH]2)cc1` [Compound 5, 5-[2-fluoro-6-(4-fluorphenoxy)phenyl]tetrazol-1-ide], the “binding by 1D 19F-NMR” value in experiment [1] is on record as “confirming binding”. Also, the Kd in experiment [2] was 1300 µM and ~1300 µM.
Take `c1ccc(Oc2cccc(-c3nn[nH]n3)c2)cc1` [Compound 6]: in experiment [2], the Kd was 1200 µM and ~1200 µM.
The same measure, in the same setting: under `O=C(O)CN1C(=O)c2cccc3cccc1c23` [Fragment 1] stands approximately 1100 µM.
In the case of `O=C(O)CSc1c[nH]c2ccccc12` [Fragment 2], in experiment [2], the Kd is approximately 3100 µM.
In the case of `O=C(O)CCSc1ccccc1` [Fragment 3], in experiment [2], the Kd was approximately 2800 µM.
In the case of `Fc1ccc(-c2nnn[nH]2)cc1` [Fragment 4], the Kd in experiment [2] is approximately 3200 µM. The “binding by 1D 19F-NMR” value in experiment [3] is recorded as “demonstrated binding”.

Broadly, the Kd is the constant that tells how readily two partners part at equilibrium.

Values taken from PMC5872125, “Fragment-Based Discovery of Inhibitors of the Bacterial DnaG-SSB Interaction” (Antibiotics, 2018).
